Reference: patent publication US10883962B2, “Electrical double layer in nanopores for detection and identification of molecules and submolecular units” (University of Kentucky Research Foundation, priority 2017, dated 2021)

What was measured:
[1] = Expected valence charge of analytes and ions based on pKas; assay type: physicochemical; details: for Expected valence charge: maximal negative charge, intraluminal pH of 12; for Valence charge level (Zanalyte): used in the empirical model, Example 2
Excerpt: In order to investigate any dependency of the signal on the analyte concentration, the concentrations of the molecular analytes were varied from 10^−8 to 10^−2 M in 10^−5 M NaF solution. Because NaF dissociates into Na^+ and F^−, and F^− will form HF in solution (due to HF being a weak acid), it was important to ensure that the concentration of HF was negligible compared with the concentration of the molecular analytes and supporting electrolytes. […] The specific analytes used in this study were chosen to have distinct acid dissociation constants (pKas) and to be relatively similar in size (Table 2). […] NaCl was chosen as the supporting electrolyte in this pH experiment in order to maintain a homogeneous ion population with the titration reagents, NaOH and HCl. It was desirable to avoid using HF as a titration reagent, due to the risk of damaging the nanopore device and because HF is a weak acid. In low pH conditions, the concentration of undissociated HF would increase to non-negligible levels. Since HCl and NaOH are a strong acid and base, respectively, there was no risk of producing undissociated molecules at low or high pHs. […] In order to characterize this energetic balance, we estimate the pH of the intraluminal environment by considering the variable valence charges and pKas of the analytes. Table 3 lists the expected charge on each analyte at different pHs based on the pKas of the individual analytes.

[2] = Density and estimated spherical radius of analytes and supporting ions; assay type: physicochemical
[3] = cited from earlier work
[4] = 21° C.; cited from earlier work
[5] = Saturation of NaF solution; assay type: physicochemical; details: in this study
Excerpt: The SNR is consistent for electrolyte concentrations <1 M, and the sudden decrease in SNR at 1 M NaF is indicative of a saturation effect, where saturation of the solution would preclude significant changes to the electrochemical potential of the EDL. By considering the charge density and steady state double layer potential as response curves, we can explain the loss of signal quality at high concentrations of supporting electrolyte (FIG. 3(c)). The increase in steady-state potential and charge density (calculated from the model) slows at high concentrations, and a similar effect occurs experimentally to the steady state double layer potential. The decrease in slope of the response curves at high concentration will result in smaller signals from the analytes, resulting in the decrease in SNR observed at high concentrations of supporting electrolyte. Since the measured steady state potential and solution saturation follow similar curves, this may be a useful method for quantitatively characterizing solutions, as well as a method of characterizing individual analyte molecules.

SMILES | Expected valence charge [1] | Valence charge at pH ([1]; pH 1) | Valence charge at pH ([1]; pH 2, 3) | Valence charge at pH ([1]; pH 4) | Valence charge at pH ([1]; pH 5, 6) | Valence charge at pH ([1]; pH 7, 8, 9, 10) | Valence charge at pH ([1]; pH 11) | Valence charge at pH ([1]; pH 12) | Valence charge level (Zanalyte) [1] | Estimated spherical radius [2] [nm] | Saturated NaF solution reached [5] | pKa 1 [3] | pKa 2 [3] | Saturation of NaF [4] [M]
O=C(O)CC(O)(CC(=O)O)C(=O)O [Citric Acid] | −3 | 0 | 0 | −1 | −2 | −3 | −3 | −3 | −3 | 0.37 | – | – | – | –
Cl [Cl−] | – | – | – | – | – | – | – | – | – | 0.21 | – | – | – | –
F [F−] | −1 | – | – | – | – | – | – | – | – | 0.17 | – | – | – | –
Oc1ccc(O)cc1 [Hydroquinone] | −1 | 0 | 0 | 0 | 0 | 0 | −1 | −1 | −1 | 0.32 | – | 10.35 | – | –

The next lines start with results.

Expected valence charge [1] | Valence charge at pH ([1]; pH 1) | Valence charge at pH ([1]; pH 2, 3) | Valence charge at pH ([1]; pH 4) | Valence charge at pH ([1]; pH 5, 6) | Valence charge at pH ([1]; pH 7, 8, 9, 10) | Valence charge at pH ([1]; pH 11) | Valence charge at pH ([1]; pH 12) | Valence charge level (Zanalyte) [1] | Estimated spherical radius [2] [nm] | Saturated NaF solution reached [5] | SMILES | pKa 1 [3] | pKa 2 [3] | Saturation of NaF [4] [M]
1 | – | – | – | – | – | – | – | – | 0.26 | – | [K+] [K^+] | – | – | –
−2 | 0 | 0 | 0 | −1 | −1 | −1 | −2 | −2 | 0.35 | – | O=C1O[C@H]([C@@H](O)CO)C(O)=C1O [L-Ascorbic acid] | – | 11.7 | –
– | – | – | – | – | – | – | – | – | – | approximately 1 M | [F-].[Na+] [NaF] | – | – | 0.96
1 | – | – | – | – | – | – | – | – | 0.21 | – | [Na+] [Na^+] | – | – | –
−1 | 0 | −1 | −1 | −1 | −1 | −1 | −1 | −1 | 0.27 | – | O=C(O)C(=O)O [Oxalic acid] | – | – | –
